Results as given in patent US8835484B2, “Naphthocyanines for use as contrast agents” (Alamedics GmbH & Co. KG, priority 2010, dated 2014).
Structures can show the parent of a compound that is named as a salt.

How the values were obtained:
[1] = Solid cyanine dye stability comparison; type: physicochemical; conditions: storage
From the text: Decomposition of the solid dye results in a red coloration of the solid and the solution. Carboxylic acid esters, especially methyl ester, are particularly sensitive in addition to the bromides.

[2] = Fluorescence quantum yield; type: physicochemical; conditions: CHCl3; Reference: S-13 with Φ=1.00
From the text: IR spectra: Perkin Elmer Spectrum BX II, using a diamond anvil cell; UV/Vis spectra: Varian Cary 5000 and Bruins Omega 20; fluorescence spectra: Varian Eclispe; NMR spectroscopy: Varian Vnmrs 600 (600 MHz, 400 MHz, 200 MHz); mass spectrometry: Thermo Finnigan LQT FT.

[3] = tested on: lens capsule; assay: Dye tests on porcine eyes (lens capsule staining); parameters: key: +++: visually assessed very strong coloration; ++: good coloration; +: satisfactory coloration; −: weak or absent coloration; conditions: incubated, rinsed after one minute
Procedure: For the dye test, in each case 5 mg dye was dissolved in 500 μL ethanol and diluted to 2 mL with BSS Plus solution as the stock solution, and then correspondingly further diluted. As an alternative, one can prepare stock solutions of the dye by dissolving, for example, 5 mg dye in 1 mL distilled water, adding 7 mL BSS solution and then combining with 1 mL NaCl solution having an osmolality of 620 (approximately 2%) in order to restore the original osmolality of the BSS solution (308). This stock solution can be correspondingly further diluted with BSS solution as required. Enucleated porcine eyes were used having a post mortem time period of a few hours. To dye the lens capsule, the cornea was first removed. Thereafter, the iris was resected and the capsular support was severed. The lens with intact lens capsule was removed and placed in a bowl filled with BSS. The lenses were thereafter incubated with the dyes according to the invention at various concentrations and then rinsed after one minute. The dye pattern was photographically documented, whereby the coloration was assessed without additional illumination, and fluorescence was assessed with illumination (Xenon lamp, halogen lamp with typical endoillumination source and fiber optics). The lens capsule is a very good model for dyeing due to the fact that it is a basal membrane, as is the ILM of the retina. Both structures are important target structures in eye surgery.

melting point	Molecule	Stability [1]	Fluorescence quantum yield [2]	coloration of lens capsule ([3]; dye concentration 0.5%)	coloration of lens capsule ([3]; dye concentration 1.0)	coloration of lens capsule ([3]; dye concentration 0.0025%)	coloration of lens capsule ([3]; dye concentration 0.025%)	coloration of lens capsule ([3]; dye concentration 0.25%)
	3,3′-Di-(5-bromopentyl)-1,1,1′,1′-tetramethyl-1H-dibenzo[e]indocarbocyanine bromide [Dye 3y]	No decomposition after 4 months	0.15					
	3,3′-Di-(5-brompentyl)-1,1,1′,1′-tetramethyl-1H-disulfobenzo[e]indocarbocyanine bromide [Dye 6h]	Decomposition after a few days	0.19	decomposed	decomposed			
	3,3′-Di-(10-bromodecyl)-1,1,1′,1′-tetramethyl-1H-disulfobenzo[e]indocarbocyanine bromide [Dye 6i]	Decomposition after 2 days	0.13	decomposed	decomposed			
> 250 °C	CC1(C)C(/C=C/C=C2\N(CCCCS(=O)(=O)O)c3ccc4ccccc4c3C2(C)C)=[N+](CCCCS(=O)(=O)[O-])c2ccc3ccccc3c21 (as salt: bromide) [Dye 3t, 3,3′-Di-(4-sulfobutyl)-1,1,1′,1′-tetramethyl-1H-dibenzo[e]indocarbocyanine bromide]							
> 150 °C	CC1(C)C(/C=C/C=C2\N(CCCCS(=O)(=O)[O-])c3ccc4c(S(=O)(=O)O)cccc4c3C2(C)C)=[N+](CCCCS(=O)(=O)O)c2ccc3c(S(=O)(=O)O)cccc3c21 (as salt: bromide) [Dye 6a, 3,3′-Di-(4-sulfobutyl)-1,1,1′,1′-tetramethyl-1H-disulfobenzo[e]indocarbocyanine bromide]							
199 °C	CC1(C)C(/C=C/C=C2\N(CCC(=O)O)c3ccc4ccccc4c3C2(C)C)=[N+](CCC(=O)O)c2ccc3ccccc3c21.[Br-] (hydrate or solvate) [Dye 3a, 3,3′-Di-(2-carboxyethyl)-1,1,1′,1′-tetramethyl-1H-dibenzo[e]indocarbocyanine bromide]							
	CC1(C)C(/C=C/C=C2\N(CCCCS(=O)(=O)O)c3ccc4ccccc4c3C2(C)C)=[N+](CCCCS(=O)(=O)[O-])c2ccc3ccccc3c21 [Dye 3t, 3,3′-Di-(4-sulfobutyl)-1,1,1′,1′-tetramethyl-1H-dibenzo[e]indocarbocyanine bromide]	No decomposition after 3 years	0.32	+++		−	+	++
	CC1(C)C(=CC=CC2=[N+](CCCCCS(=O)(=O)O)c3ccc4ccccc4c3C2(C)C)N(CCCCCS(=O)(=O)O)c2ccc3ccccc3c21.[Br-] [Dye 3u, 3,3′-Di-(5-sulfopentyl)-1,1,1′,1′-tetramethyl-1H-dibenzo[e]indocarbocyanine bromide]	No decomposition after 4 months	0.13	−	+			
	CC1(C)C(=CC=CC2=[N+](CCCCCCCCCCS(=O)(=O)O)c3ccc4ccccc4c3C2(C)C)N(CCCCCCCCCCS(=O)(=O)O)c2ccc3ccccc3c21.[Br-] [Dye 3v, 3,3′-Di-(10-sulfodecyl)-1,1,1′,1′-tetramethyl-1H-dibenzo[e]indocarbocyanine bromide]	No decomposition after 4 months	0.14	−	−			
	CC1(C)C(/C=C/C=C2\N(CCCCS(=O)(=O)[O-])c3ccc4c(S(=O)(=O)O)cccc4c3C2(C)C)=[N+](CCCCS(=O)(=O)O)c2ccc3c(S(=O)(=O)O)cccc3c21 [Dye 6a, 3,3′-Di-(4-sulfobutyl)-1,1,1′,1′-tetramethyl-1H-disulfobenzo[e]indocarbocyanine bromide]	No decomposition after 4 months	0.33	+++	+++			
